Assays:
HCT116 cells [1] = test: Cell viability (WST-1); assay type: cell-based, human; conditions: FIG. 5
Description: (§1) The human cell lines HT29, HCT116, SW480, MDA-MB-231, MDA-MB-468, HGC-27, and PANC1 were cultured in DMEM culture medium, supplemented with 10% fetal bovine serum (FBS); N87, AGS and KATO III were cultured in RPMI culture medium supplemented with 10% FBS; CACO2 were cultured in DMEM culture medium, supplemented with 20% FBS and nonessential amino acids. All cell lines were cultured in the presence of 1% antibiotics (Penicillin and Streptomycin), at 37 °C in an atmosphere of 5% CO2 and always maintained in a subconfluence state.
(§2) Cell viability analysis was performed by using WST-1 kit (Roche), allowing to measure viable cell metabolic activity. In short, the quantitation of mitochondrial dehydrogenase activity is assessed by soluble tetrazolium salt ([…], colorless) conversion into its corresponding product, formazane (colored). The quantitative assessment of salt conversion into its colored form is then performed by spectrophotometrically calculating absorption at 450 nm. Substrate conversion levels are therefore proportional to enzymatic activity which, in turn, represents a marker of cell viability and proliferation.

HT29 cells = test: Cell viability (WST-1); assay type: cell-based, human; conditions: FIG. 5
Description: as §1, §2

HR-deficient cell lines = conditions: previously described; cited from earlier work
[2] = tested on: colorectal cancer stem cells; test: Cancer stem cell viability; assay type: cell-based, human; conditions: FIG. 3A; EM127 + Oxaliplatin, 5-Fluorouracil or Irinotecan 10 μM
Description: (§3) In compliance with Art 170bis, Paragraph 3 C.P.I., it is hereby certified that: • The colorectal cancer stem cells used at the base of the invention object of the present application have been isolated from patients, and the aforementioned cells were obtained following the free and informed consent to their collection and use expressed by the person from whom said material has been collected, under the regulations in force; and • C57BL/6 mice for the AOM/DSS murine model of colorectal cancer were not genetically modified.
as §2

[3] = tested on: Caco2 colorectal cancer cells; test: Cell viability (WST-1); assay type: cell-based, human; conditions: FIG. 1A; EM127 72 h + Oxaliplatin, 5-Fluorouracil or Irinotecan 10 μM for the last 24 h; vs chemotherapeutic compound alone
Description: as §1, §2

[4] = tested on: SW480 colorectal cancer cells; test: Cell viability (WST-1); assay type: cell-based, human
Description: as §1, §2

N87 gastric cancer cells = test: Cell viability (WST-1); assay type: cell-based, human
Description: as §1, §2

[5] = tested on: MDA-MB-231 breast cancer cells; test: Cell viability (WST-1); assay type: cell-based, human; conditions: FIG. 4; EM127 + chemotherapeutic compounds (Paclitaxel 10 μM, Oxaliplatin 10 μM, Doxorubicin 1 μM)
Description: as §1, §2

[6] = tested on: HGC-27 gastric cancer cells; test: Cell viability (WST-1); assay type: cell-based, human
Description: as §1, §2

MDA-MB-468 cells = test: Cell viability (WST-1); assay type: cell-based, human; conditions: FIG. 7; EM127 alone; low SMYD3 protein levels
Description: as §1, §2

[7] = tested on: PANC1 pancreatic cancer cells; test: Cell viability (WST-1); assay type: cell-based, human
Description: as §1, §2

AGS gastric cancer cells [8] = test: Cell viability (WST-1); assay type: cell-based, human
Description: as §1, §2

KATO III cells = test: Cell viability (WST-1); assay type: cell-based, human; conditions: FIG. 7; EM127 alone; low SMYD3 protein levels
Description: as §1, §2

[9] = tested on: colorectal cancer stem cells; test: Clonogenic assay; assay type: cell-based, human; conditions: FIG. 3C; EM127 + Oxaliplatin, 5-Fluorouracil or Irinotecan 10 μM
Description: as §3
For the clonogenic assay, previously dissociated colorectal cancer tumorspheres were plated in triplicate using 500 cells per experimental point and resuspended in 0.3% agarose on a 0.5% agarose layer. Subsequently, they were treated with EM127 and chemotherapeutic compounds.

[10] = tested on: HCT116-derived tumor spheroids; test: LIVE/DEAD viability of tumorspheres; assay type: cell-based, human; conditions: FIG. 2; EM127 + Oxaliplatin or Irinotecan 10 μM
Description: The tumorspheres deriving from the continuous cell line HCT116 “HCT116-derived tumor spheroids” were obtained by using a suitable DMEM/F12 Advanced culture medium supplemented with 1× Glutamine, 1× Penicillin/streptomycin, 0.6% glucose, 1×B27, 1×N2, 20 ng/ml EGF, 10 ng/ml bFGF, and cultured in media surface-treated to ensure a very low cell adhesion.
To assess cell viability on HCT116-derived tumorspheres, LIVE/DEAD® Viability/Cytotoxicity Assay kit (Thermo Fisher) was used, allowing to discriminate live cells from dead ones with two probes measuring intracellular enzymatic activity and plasma membrane integrity. Tumorspheres were incubated with the reagent provided by the kit and then visualized with a fluorescence microscope. Live cells are stained with reagent calcein and generate a green fluorescence signal; dead cells are stained with ethidium homodimer, generating a red signal.

[11] = tested on: colorectal cancer stem cells; test: Migration assay (Boyden chamber); assay type: cell-based, human; conditions: FIG. 3B; EM127 + Oxaliplatin, 5-Fluorouracil or Irinotecan 10 μM
Description: as §3
To assess cell motility, colorectal cancer tumorspheres were suspended in 200 μl non-supplemented stem cell culture medium and plated in the top section of a Boyden culture chamber, which is separated from the bottom part by a polycarbonate membrane allowing cells to migrate. The underlying section contains 600 μl of stem cell medium supplemented with 20 ng/ml EGF and 10 ng/ml basic FGF and chemotherapeutic compounds.

HCT116 cells [12] = test: Apoptotic cell percentage (Annexin V); assay type: cell-based, human; conditions: FIG. 1B; EM127 + chemotherapeutic compound (Oxaliplatin, 5-Fluorouracil or Irinotecan, 10 μM)
Description: as §1
(§4) Analysis of the percentage of cells undergoing programmed death, referred to as apoptosis, was performed by Annexin V assay. The concentrations of live cells, cells in early apoptosis, in total apoptosis and dead cells were measured with Muse Annexin V and Dead Cell Reagent kit (Luminex). 5×10^4 cells/mL were stained with the reagent provided by the kit. After 20 min incubation, fluorescence is read with Guava® Muse® Cell Analyzer. The test was performed on the following cell lines: HCT116, PANC1, SW480, MDA-MB-231, MCF7, AGS.

MCF7 breast cancer cells = test: Synergistic effect, nonviable/apoptotic cell population; assay type: cell-based, human; conditions: FIG. 9, >1 = synergistic
Description: (§5) Analysis of non-viable cell percentage was carried out by counting live cells and dead cells after staining with 0.01% Trypan Blue, a dye permeating cells only in the condition in which plasma membrane integrity is compromised. In short, after collecting the culture medium and the plate-adhering cells, detached by enzymatic treatment with 1% trypsin/EDTA, the pellet obtained by centrifuging was resuspended in an adequate volume of DPBS and 10 μl of cell suspension were diluted in an equal volume of Trypan blue. The counting was performed with a phase-contrast optical microscope, using a Burker chamber.
as §4

[13] = tested on: MDA-MB-231 breast cancer cells; test: as above; assay type: cell-based, human; conditions: FIG. 9, >1 = synergistic
Description: as §5, §4

AGS gastric cancer cells [14] = test: as above; assay type: cell-based, human; conditions: FIG. 9, >1 = synergistic
Description: as §5, §4

[15] = tested on: PANC1, SW80, AGS, N87, HGC-27 cells; test: Cell death and viability, FIG. 6 panel of cell lines; assay type: cell-based, human; conditions: 72 h
Description: as §1
as §2, with “Substrate conversion levels are therefore proportional to enzymatic activity which, in turn, represents a marker of cell viability and proliferation.” left out
as §4, with “5×10^4 cells/mL were stained with the reagent provided by the kit.” left out, “The test was performed on the following cell lines: HCT116, PANC1, SW480, MDA-MB-231, MCF7, AGS.” left out

[16] = tested on: AOM/DSS murine model of colorectal cancer; test: AOM/DSS murine model of colorectal cancer; assay type: in vivo, C57BL/6 mice; conditions: FIG. 8; EM127 20 mg/kg + Irinotecan 20 mg/kg, intraperitoneally, 14 days; vs Irinotecan alone
Description: C57BL/6 mice were treated intraperitoneally with 12 mg/kg azoxymethane (AOM). Dextran sulfate sodium (DSS) was then administered, at 2% in water for five days, followed by two weeks with water only. This cycle was repeated thrice. At +10 days from the last DSS administration, the Inventors proceeded with the treatment with 20 mg/kg EM127 and/or 20 mg/kg Irinotecan, or with the carrier alone, intraperitoneally, for a total of 14 days.

[17] = single-compound treatment, 72 h, increasing concentrations
[18] = EM127 72 h + 5-Fluorouracil 10 μM last 24 h
[19] = EM127 72 h + Irinotecan 10 μM last 24 h
[20] = EM127 72 h + Oxaliplatin 10 μM last 24 h
[21] = FIG. 4, EM127 + chemotherapeutic compounds (Paclitaxel 10 μM, Oxaliplatin 10 μM, Doxorubicin 1 μM)
[22] = FIG. 6C, EM127 + Olaparib 10 μM, 72 h, vs single compound

SMILES: CCc1c2c(nc3ccc(OC(=O)N4CCC(N5CCCCC5)CC4)cc13)-c1cc3c(c(=O)n1C2)COC(=O)[C@]3(O)CC [Irinotecan, reference compound]
- reduction of cell viability (HCT116 cells [1]; [17]): about 50%
- reduction of cell viability (HT29 cells; [17]): about 50%

SMILES: N[C@@H]1CCCC[C@H]1N.[Pt+2] [Oxaliplatin, reference compound]
- reduction of cell viability (HCT116 cells [1]; [17]): about 50%
- reduction of cell viability (HT29 cells; [17]): about 50%

SMILES: O=C(c1cc(Cc2n[nH]c(=O)c3ccccc23)ccc1F)N1CCN(C(=O)C2CC2)CC1 [Olaparib]
- sensitivity to treatment with Olaparib alone (HR-deficient cell lines): sensitive

SMILES: O=C(NC1CCN(C(=O)CCl)CC1)c1cc(C2CC2)on1 [EM127]
- cell viability [2]: synergistic effect
- cell viability [3]: reduces cell viability with a greater effect
- reduction of cell viability (HCT116 cells [1]; [18]): about 50%
- reduction of cell viability (HCT116 cells [1]; [19]): about 50%
- reduction of cell viability (HCT116 cells [1]; [20]): about 50%
- cell viability ([4]; FIG. 1A, EM127 72 h + Oxaliplatin, 5-Fluorouracil or Irinotecan 10 μM for the last 24 h, vs chemotherapeutic compound alone): reduces cell viability with a greater effect
- cell viability ([4]; FIG. 6C, EM127 + Olaparib 10 μM, 72 h, vs single compound, cell line printed SW80): reduction of cell viability
- cell viability ([4]; FIG. 10, EM127 + Rucaparib): synergistic effect
- cell viability (N87 gastric cancer cells; [21]): synergistic effect
- cell viability (N87 gastric cancer cells; [22]): reduction of cell viability
- cell viability (N87 gastric cancer cells; FIG. 10, EM127 + Rucaparib): synergistic effect
- reduction of cell viability (HT29 cells; [18]): about 50%
- reduction of cell viability (HT29 cells; [19]): about 50%
- reduction of cell viability (HT29 cells; [20]): about 50%
- cell viability [5]: synergistic effect
- cell viability [6, 21]: synergistic effect
- cell viability [6, 22]: reduction of cell viability
- cell viability ([6]; FIG. 10, EM127 + Rucaparib): synergistic effect
- cell viability (MDA-MB-468 cells): absence of effect
- cell viability [7, 22]: reduction of cell viability
- cell viability ([7]; FIG. 10, EM127 + Rucaparib): synergistic effect
- cell viability (AGS gastric cancer cells [8]; [22]): reduction of cell viability
- cell viability (AGS gastric cancer cells [8]; FIG. 10, EM127 + Rucaparib): synergistic effect
- cell viability (KATO III cells): absence of effect
- ability to form colonies [9]: synergistic effect
- live and dead cells by immunofluorescence [10]: synergy
- ability to migrate [11]: synergistic effect
- dead (apoptotic) cell percentage (HCT116 cells [12]): increased
- synergistic effect (MCF7 breast cancer cells; EM127 + Doxorubicin): higher than 1
- synergistic effect (MCF7 breast cancer cells; EM127 + Paclitaxel): higher than 1
- synergistic effect ([13]; EM127 + Doxorubicin): higher than 1
- synergistic effect ([13]; EM127 + Paclitaxel): higher than 1
- synergistic effect (AGS gastric cancer cells [14]; EM127 + Doxorubicin): higher than 1
- synergistic effect (AGS gastric cancer cells [14]; EM127 + Paclitaxel): higher than 1
- cell death ([15]; FIG. 6A, B, EM127 + Olaparib 10 μM, vs single compound): increase of cell death
- cell viability by HR status ([15]; FIG. 6C, combined treatment EM127 + Olaparib 10 μM): reduction of cell viability only for HR-proficient cell lines
- number of tumors at the level of the colon [16]: reduces the number of tumors

SMILES: O=c1[nH]cc(F)c(=O)[nH]1 [5-Fluorouracil, reference compound]
- reduction of cell viability (HCT116 cells [1]; [17]): about 50%
- reduction of cell viability (HT29 cells; [17]): about 50%
